Assay: Inhibition of MDC-stimulated chemotaxis in transfected murine cell line expressing human chemokine receptor 4

SMILES	EC50
Cc1c(Cl)cccc1CNC(=O)C[C@H]1S[C@H](c2ccc(Cl)cc2Cl)N(CC(=O)NCCCN2CCCCC2)C1=O [2-[(2R,5R)-5-[(3-Chloro-2-methyl-benzylcarbamoyl)-methyl]-2-(2,4-dichloro-phenyl)-4-oxo-thiazolidin-3-yl]-N-(3-piperidin-1-yl-propyl)-acetamide]	2000 nM
C[C@@H](NC(=O)C[C@H]1S[C@H](c2ccc(Cl)cc2Cl)N(CC(=O)NCCCN2CCCCC2)C1=O)c1cccc2ccccc12 [2-{(2R,5R)-2-(2,4-Dichloro-phenyl)-5-[((R)-1-naphthalen-1-yl-ethylcarbamoyl)-methyl]-4-oxo-thiazolidin-3-yl}-N-(3-piperidin-1-yl-propyl)-acetamide]	600 nM

Source: BindingDB's records for doi:10.1016/j.bmcl.2004.01.072 (Array Biopharma, 2004)
